How the values were obtained:
MAT2A = MAT2A (Homo sapiens (Human), UniProt P31153); assay: Biochemical test: inhibition of MAT2A enzyme activity (phosphate detection, OD620); conditions: MAT2A his-tag; 150 minutes enzymatic reaction
Excerpt: Experimental principle: MAT2A can catalyze the conversion of L-methionine and ATP into SAM, inorganic phosphate, and inorganic diphosphate. By adding a chromogenic reagent to the enzymatic reaction system, the content of inorganic phosphates in a sample can be quantitatively detected, thereby characterizing the enzymatic activity of MAT2A.
Experimental material: Tris (Life Science #0497); BSA (Sigma #); MAT2A his-tag (BPS #71401-1); 384 well plate (Corning #3765); L-methionine (Admas #1100469); ATP (Sigma #A7699); MgCl2 (Sigma #M8266); KCl (Sigma #7447-40-7); Brij35 (Sigma #B4184); EDTA (Sigma #E1644)
1. 1×Assaybuffer (buffer composition: Tris, KCl, MgCl2, BSA, Brij35, and EDTA; the solvent was ultrapure water) was prepared. MAT2A his-tag enzyme solution (containing 1.3 μL of MAT2A enzyme and 998.7 μL of 1×Assaybuffer per 1000 μL) and substrate mixed solution (containing 5 μL of ATP, 1.3 μL of L-methionine, and 993.7 μL of 1×Assaybuffer per 1000 μL) were prepared using 1×AssayBuffer.
2. Preparation of compound concentration gradient: The test compound was tested with a starting concentration of 10 μM, and 10 equimolar concentrations were set according to a 3-fold dilution. Specifically, firstly, the compound was diluted into 10 different concentrations of series solutions in a 384 well plate (with final detection concentrations of 10, 3.33, 1.11, 0.37, 0.123, 0.041, 0.0137, 0.0046, 0.0015, and 0.0005 μM), and then 250 nL of the above series solutions was transferred to the 384 well reaction plate using an ultrasonic pipetting system Echo550 for later use. 250 nL of 100% DMSO was added into a negative control well and a positive control well, respectively. Double well test.
3. 15 μL of MAT2A his-tag enzyme solution was added into both the compound well and the positive control well; and 15 μL of 1×Assaybuffer was added into the negative control well.
4. The 384 well plate reaction plate was centrifuged at 1000 rpm for 60 seconds, shaken, mixed well, and incubated for 15 minutes. 10 μL of substrate mixed solution was added into each experimental well of the 384 well reaction plate to initiate the reaction.
5. The 384 well reaction plate was centrifuged at 1000 rpm for 60 seconds, shaken, mixed well, and incubated for 150 minutes.
6. 50 μL of enzyme reaction termination solution Biomol was added into all experimental wells of the 384 well reaction plate to terminate the reaction, centrifuged at 1000 rpm for 60 seconds, and incubated for 15 minutes. OD620 was read and data was processed.
Data analysis: the inhibition rate (%) of the compound was calculated and fitted to obtain the IC50 of the tested compound. Calculation method for compound inhibition rate: Compound inhibition rate (%)=(OD620_max−OD620_stample)/(OD620_max−OD620_min)×100, wherein OD620_stample was the absorbance value of the sample well; OD620 min was the absorbance value of the positive control well, indicating the reading of the wells without enzyme activity; and OD620_max was the absorbance value of the negative control well, indicating the reading of the well without compound inhibition.

KP-4 cells = assay: Human pancreatic cancer KP-4 cell activity inhibition test (CellTiter-Glo); assay type: cell-based; conditions: 5 days
Description: Experimental principle: after co-incubating the MAT2A inhibitor to be tested with KP-4 cells for a period of time, a cell viability measurement method based on ATP content is used to characterize the effect of the tested compound on cell viability.
Experimental material: KP-4 cells (JCRB #JCRB0182); IMDM (Gibco 912440061); fetal bovine serum (EXCELL #FND500); penicillin-streptomycin (Gibco #15140-122); 0.25% Typsin-EDTA (Gibco #252(101-072); DMSO (Sigma #D2650); 96 well plate (Corning #3610); CellTiter-Glo (Promega #G7571)
1. KP-4 cells were cultured in IMDM culture medium containing 10% e fetal bovine serum and 1% penicillin-streptomycin at 37° C. and 5% CO2 in a cell culture incubator. Only cells in logarithmic growth phase were used for subsequent experiments.
2. The cells in logarithmic growth phase were inoculated into a 96 well plate, with a seeding quantity of 500 cells per well, and incubated overnight in a cell culture incubator at 37′C and 5% CO2.
3. The compound was dissolved with DMSO, diluted with culture medium to 10 different concentrations (approximately […]), 3333.3, 1111.1, 370, 123, 41.2, 13.7, 4.6, 1.5, and 0.5 nM) before adding it to the cell plate, and cultured at 37° C. and 5% CO2 for 5 days.
4. CellTiter-Glo reagent was added, and an enzyme-linked immunosorbent assay reader was used to detect cell viability.
Data analysis: the inhibition rate (%) of the compound was calculated and fitted to obtain the IC50 of the tested compound. Calculation method for compound inhibition rate: Compound inhibition rate (%)=(Signal_max−Signal_sample)/(Signal_max−Signal_min)×100, wherein Signal_sample was the sample well reading, indicating the cell activity of the compound inhibition well; Signal_min was the positive control well reading, indicating the background activity without cells; and Signal_max was the negative control well reading, indicating the cell activity of the well without compound inhibition.

[1] = system: human B-cell lymphoma DOHH-2 cell subcutaneous xenograft tumor; assay: In vivo anti-tumor efficacy in the DOHH-2 cell subcutaneous xenograft tumor model; parameters: species or system mice; conditions: DOHH-2 xenograft; for T/C (%) / TGI (%): intragastric, female CB-17 SCID mice
Description: The in vivo anti-tumor efficacy of compound 13 and AG-270 (MAT2A inhibitor,
were evaluated using a human B-cell lymphoma DOHH-2 cell subcutaneous xenograft tumor model.
The female CB-17 SCID mice used were purchased from Beijing Vital River Laboratory Animal Technology Co., Ltd. Tumor cell culture and subcutaneous inoculation: Human B-cell lymphoma DOHH-2 cells (DSMZ) were cultured in vitro in RPMI-1640 medium containing 10% fetal bovine serum and 1% […], and incubated in a 5% CO2 incubator at 37° C. When the required number of cells was reached, the cells were collected, and counted. 0.2 mL (10×10^6) of DOHH-2 cells (with matrix gel added, volume ratio of 1:1) were subcutaneously inoculated into the right back of each mouse. When the average tumor volume reached 100-150 mm^3, random grouping would begin, with 5 mice in each group. The administration group (compound 13 or compound AG-270) was performed intragastric administration twice a day (dosage shown in Table 3), while the negative control group was performed intragastric administration using the same volume of blank solvent per day.
The experimental indicator was to examine whether tumor growth was inhibited, delayed, or cured. The tumor diameter was measured twice a week using a vernier caliper. The formula for calculating tumor volume was: V=0.5a×b^2, wherein a and b indicated the long and short diameters of tumors, respectively.
The anti-tumor efficacy of the compound was evaluated using TGI (%) or relative tumor proliferation rate T/C (%).
TGI (%) reflects the tumor growth inhibition rate. Calculation of TGI (%). TGI (%)=[(1−(average tumor volume at the end of administration in the treatment group-average tumor volume at the beginning of administration in the treatment group))/(average tumor volume at the end of treatment in the negative control group-average tumor volume at the beginning of treatment in the negative control group)]×100%.
Relative tumor proliferation rate TIC (%): The calculation formula was as follows: T/C %=TRTV/CRTV×100% (TRTV: administration group RTV: CRTV: negative control group RTV). The calculation formula of the relative tumor volume (RTV) was RTV=Vt/V0, wherein V0 was the average tumor volume measured at the time of group administration (i.e. d0), Vt was the average tumor volume measured at a certain measurement, and TRTV and CRTV took the same day's data.

Sequence of MAT2A (P31153 whole entry): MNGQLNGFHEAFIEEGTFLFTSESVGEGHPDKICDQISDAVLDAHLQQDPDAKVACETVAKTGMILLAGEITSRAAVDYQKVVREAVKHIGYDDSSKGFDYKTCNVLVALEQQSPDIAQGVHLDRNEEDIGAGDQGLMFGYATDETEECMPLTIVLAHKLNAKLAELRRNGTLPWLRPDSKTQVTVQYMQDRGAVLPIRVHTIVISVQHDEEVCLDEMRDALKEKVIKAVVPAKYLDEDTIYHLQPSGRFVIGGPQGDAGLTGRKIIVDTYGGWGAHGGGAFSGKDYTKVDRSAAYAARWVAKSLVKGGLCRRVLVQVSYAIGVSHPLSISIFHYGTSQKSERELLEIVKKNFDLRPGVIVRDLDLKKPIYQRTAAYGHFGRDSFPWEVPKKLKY

| Structure (SMILES) | IC50 (MAT2A) | IC50 (KP-4 cells; Homo sapiens, 120 h) | also measured |
| --- | --- | --- | --- |
| CCOc1c(-c2ccc(Cl)cc2)c(=O)n(-c2ccc3nn(C)cc3c2)c2[nH]ncc12 [Compound 13] | 15.1 nM | 7.4 nM | T/C (%) ([1]; 5 mg/kg, BID): 35.54%; TGI (%) ([1]; 5 mg/kg, BID): 68.82%; T/C (%) ([1]; 10 mg/kg, BID): 26.46%; TGI (%) ([1]; 10 mg/kg, BID): 78.48%; T/C (%) ([1]; 20 mg/kg, BID): 15.98%; TGI (%) ([1]; 20 mg/kg, BID): 89.67%; in vivo efficacy, in words ([1]; 5, 10, 20 mg/kg BID): dose-dependent in vivo efficacy |
| COc1ccc(-c2c(Nc3ccccn3)[nH]c3c(C4=CCCCC4)c(-c4ccccc4)nn3c2=O)cc1 [AG-270, reference compound] | – | – | T/C (%) ([1]; 80 mg/kg, QD): 22.32%; TGI (%) ([1]; 80 mg/kg, QD): 82.92% |
| COc1ccc(-c2cc3cn[nH]c3n(-c3ccc4nn(C)cc4c3)c2=O)cc1 [Compound 1] | > 10000 nM | – | IC50 (KP-4 cells): > 10000 nM |
| CCOc1c(-c2ccc(OC(F)F)cc2)c(=O)n(-c2ccc3nn(C)cc3n2)c2[nH]ncc12 [Compound 41] | 12.7 nM | 11.4 nM | – |
| COc1ccc(-c2c(OCC(F)(F)F)c3cn[nH]c3n(-c3ccc4nn(C)cc4c3)c2=O)cc1 [Compound 12] | 12.1 nM | 11.7 nM | – |
| Cn1cc2cc(-n3c(=O)c(-c4ccc(Cl)cc4)c(OCC4CC4)c4cn[nH]c43)ccc2n1 [Compound 50] | 13.6 nM | 21.4 nM | – |
| CNc1c(-c2ccc(OC)cc2)c(=O)n(-c2ccc3nn(C)cc3c2)c2[nH]ncc12 [Compound 4] | 62 nM | 28 nM | – |
| CCOc1c(-c2ccc(Cl)cn2)c(=O)n(-c2ccc3nn(C)cc3c2)c2[nH]ncc12 [Compound 62] | 18 nM | 180 nM | – |
| CCOc1c(-c2ccc(OC(F)F)cc2)c(=O)n(-c2ccc3nn(C)cc3c2)c2nn(C)cc12 [Compound 45] | 10.5 nM | 89.1 nM | – |
| Cn1cnc2ccc(-n3c(=O)c(-c4ccc(Cl)cc4)c(OCC(F)(F)F)c4cn[nH]c43)cc21 [Compound 36] | 17 nM | 39.2 nM | – |
| CCOc1c(-c2ccc(C(F)(F)F)nc2)c(=O)n(-c2ccc3nn(C)cc3c2)c2[nH]ncc12 [Compound 46] | 15.3 nM | 60.9 nM | – |

Second part, led by results:

| IC50 (MAT2A) | IC50 (KP-4 cells; Homo sapiens, 120 h) | Structure (SMILES) | also measured |
| --- | --- | --- | --- |
| 16.7 nM | 146 nM | CCOc1c(-c2ccc(Cl)cc2)c(=O)n(C2=NC3C(C=C2)N=NN3C)c2[nH]ncc12 (stereo not drawn) [Compound 141] | – |
| 23.2 nM | 128 nM | CCOc1c(-c2ccc(Cl)cc2)c(=O)n(-c2ccc3nn(C)cc3n2)c2nn(C)cc12 [Compound 109] | – |
| 13.7 nM | 12.7 nM | CCOc1c(-c2ccc(Cl)cc2)c(=O)n(-c2ccc3nn(C)c(C)c3c2)c2[nH]ncc12 [Compound 66] | – |
| 16.1 nM | 87.8 nM | Cn1cc2nc(-n3c(=O)c(-c4ccc(Cl)cc4)c(OCC(F)(F)F)c4cn[nH]c43)ccc2n1 [Compound 99] | – |
| 28.8 nM | 234 nM | CCNc1c(-c2ccc(C(F)(F)F)nc2)c(=O)n(-c2ccc3nn(C)cc3c2)c2[nH]ncc12 [Compound 106] | – |
